# Test results published in patent US9884063B2, “Amido-substituted azole compounds” (Bayer Pharma Aktiengesellschaft, priority 2014, dated 2018).
# Target: T1, TNKS1 (Homo sapiens, UniProt O95271)
# T1 sequence (O95271 1-1327): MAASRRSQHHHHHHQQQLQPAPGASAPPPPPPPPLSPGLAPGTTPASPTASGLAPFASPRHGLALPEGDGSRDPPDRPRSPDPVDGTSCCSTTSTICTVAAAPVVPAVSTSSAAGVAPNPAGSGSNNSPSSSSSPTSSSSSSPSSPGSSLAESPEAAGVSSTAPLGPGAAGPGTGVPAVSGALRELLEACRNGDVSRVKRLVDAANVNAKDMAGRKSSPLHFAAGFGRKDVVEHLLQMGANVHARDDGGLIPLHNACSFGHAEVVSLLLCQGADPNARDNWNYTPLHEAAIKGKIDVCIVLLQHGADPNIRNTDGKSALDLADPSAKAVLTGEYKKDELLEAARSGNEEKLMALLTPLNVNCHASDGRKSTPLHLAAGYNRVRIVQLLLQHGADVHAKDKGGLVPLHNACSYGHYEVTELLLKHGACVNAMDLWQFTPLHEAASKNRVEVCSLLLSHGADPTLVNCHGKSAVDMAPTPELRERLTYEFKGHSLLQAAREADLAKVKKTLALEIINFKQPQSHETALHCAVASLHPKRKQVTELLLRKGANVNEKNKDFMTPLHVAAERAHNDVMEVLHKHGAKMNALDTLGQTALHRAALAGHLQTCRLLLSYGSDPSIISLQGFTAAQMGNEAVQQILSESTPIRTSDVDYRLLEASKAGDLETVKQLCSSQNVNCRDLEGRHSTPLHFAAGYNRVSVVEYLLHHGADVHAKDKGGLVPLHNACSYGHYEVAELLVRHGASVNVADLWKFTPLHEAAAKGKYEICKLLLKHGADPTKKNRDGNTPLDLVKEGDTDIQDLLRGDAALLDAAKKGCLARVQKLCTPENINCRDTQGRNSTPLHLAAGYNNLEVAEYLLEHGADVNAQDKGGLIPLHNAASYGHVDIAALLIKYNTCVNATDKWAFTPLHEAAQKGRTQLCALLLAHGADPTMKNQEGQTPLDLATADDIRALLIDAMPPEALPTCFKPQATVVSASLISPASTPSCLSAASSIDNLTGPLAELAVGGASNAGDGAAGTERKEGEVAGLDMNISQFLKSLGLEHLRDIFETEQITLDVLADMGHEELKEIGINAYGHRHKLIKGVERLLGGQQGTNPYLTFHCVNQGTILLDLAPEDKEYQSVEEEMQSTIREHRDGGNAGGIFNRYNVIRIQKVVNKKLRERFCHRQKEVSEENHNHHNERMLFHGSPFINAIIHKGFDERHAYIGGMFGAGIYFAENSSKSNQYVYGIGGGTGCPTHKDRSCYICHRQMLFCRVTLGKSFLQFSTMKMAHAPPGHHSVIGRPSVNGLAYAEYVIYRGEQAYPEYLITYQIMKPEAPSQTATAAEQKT
# Assay: Modified TNKS1 Assay 2 (auto-parsylation, [3H]-NAD+ SPA)
# Assay type: biochemical
# Details: 6 nM TNKS1, 96 well
row,Compound,IC50 [nM]
1,"CNC(=O)c1nc[nH]c1C(=O)Nc1ccc(NC(=O)c2ccccc2OC)cc1 [Example 60, N^5-{4-[(2-methoxybenzoyl)amino]phenyl}-N^4-methyl-1H-imidazole-4,5-dicarboxamide]",> 10000
2,"O=C(Nc1ccc(NC(=O)c2[nH]cnc2C(=O)NCCC2CCCC2)cc1)c1ccc(F)cc1Cl [Example 42, N^5-{4-[(2-chloro-4-fluorobenzoyl)amino]phenyl}-N^4-(2-cyclopentylethyl)-1H-imidazole-4,5-dicarboxamide]",> 10000
3,"CNC(=O)c1nc[nH]c1C(=O)Nc1ccc(NC(=O)c2cccc(Cl)n2)cc1 [Example 353, N^5-(4-{[(6-chloropyridin-2-yl)carbonyl]amino}phenyl)-N^4-methyl-1H-imidazole-4,5-dicarboxamide]",> 10000
4,"CNC(=O)c1nc[nH]c1C(=O)Nc1ccc(NC(=O)c2cc(C(F)(F)F)ccc2Cl)cc1 [Example 352, N^5-(4-{[2-chloro-5-(trifluoromethyl)benzoyl]amino}phenyl)-N^4-methyl-1H-imidazole-4,5-dicarboxamide]",580
5,"CNC(=O)c1nc[nH]c1C(=O)Nc1ccc(NC(=O)c2cc(F)c(F)cc2C)cc1 [Example 377, N^5-{4-[(4,5-difluoro-2-methylbenzoyl)amino]phenyl}-N^4-methyl-1H-imidazole-4,5-dicarboxamide]",470
6,"CNC(=O)c1nc[nH]c1C(=O)Nc1ccc(NC(=O)c2cc(C#N)ccc2F)cc1 [Example 349, N^5-{4-[(5-cyano-2-fluorobenzoyl)amino]phenyl}-N^4-methyl-1H-imidazole-4,5-dicarboxamide]",2700
7,"CNC(=O)c1nc[nH]c1C(=O)Nc1ccc(NC(=O)c2cncc(C)c2)cc1 [Example 366, N^4-methyl-N^5-(4-{[(5-methylpyridin-3-yl)carbonyl]amino}phenyl)-1H-imidazole-4,5-dicarboxamide]",> 10000
8,"CNC(=O)c1nc[nH]c1C(=O)Nc1ccc(NC(=O)c2c(F)ccc(F)c2Cl)cc1 [Example 374, N^5-{4-[(2-chloro-3,6-difluorobenzoyl)amino]phenyl}-N^4-methyl-1H-imidazole-4,5-dicarboxamide]",1600
9,"COC(=O)c1nc[nH]c1C(=O)Nc1ccc(NC(=O)c2ccc(F)cc2Cl)c(F)c1 [Example 71, methyl 5-({4-[(2-chloro-4-fluorobenzoyl)amino]-3-fluorophenyl}carbamoyl)-1H-imidazole-4-carboxylate]",100
10,"CCNC(=O)c1nc[nH]c1C(=O)Nc1ccc(NC(=O)c2ncccc2Cl)cc1 [Example 261, N^5-(4-{[(3-chloropyridin-2-yl)carbonyl]amino}phenyl)-N^4-ethyl-1H-imidazole-4,5-dicarboxamide]",230
11,"CNC(=O)c1nc[nH]c1C(=O)Nc1ccc(NC(=O)c2cccc(F)c2OC)cc1 [Example 367, N^5-{4-[(3-fluoro-2-methoxybenzoyl)amino]phenyl}-N^4-methyl-1H-imidazole-4,5-dicarboxamide]",> 10000
12,"O=C(Nc1ccc(NC(=O)c2[nH]cnc2C(=O)NCCc2ccccn2)cc1)c1ccc(F)cc1Cl [Example 387, N^5-{4-[(2-chloro-4-fluorobenzoyl)amino]phenyl}-N^4-[2-(pyridin-2-yl)ethyl]-1H-imidazole-4,5-dicarboxamide]",100
13,"CNC(=O)c1nc[nH]c1C(=O)Nc1ccc(NC(=O)c2cc(OC(F)(F)F)ccc2Br)cc1 [Example 64, N^5-(4-{[2-bromo-5-(trifluoromethoxy)benzoyl]amino}phenyl)-N^4-methyl-1H-imidazole-4,5-dicarboxamide]",> 10000
14,"Cc1cc(NC(=O)c2[nH]cnc2C(=O)NCCN2CCCCC2)ccc1NC(=O)c1ccc(F)cc1Cl [Example 85, N^5-{4-[(2-chloro-4-fluorobenzoyl)amino]-3-methylphenyl}-N^4-[2-(piperidin-1-yl)ethyl]-1H-imidazole-4,5-dicarboxamide]",9
15,"CNC(=O)c1nc[nH]c1C(=O)Nc1ccc(NC(=O)c2c(C)cccc2Cl)cc1 [Example 343, N^5-{4-[(2-chloro-6-methylbenzoyl)amino]phenyl}-N^4-methyl-1H-imidazole-4,5-dicarboxamide]",2000
16,"CS(=O)(=O)c1ccc(C(=O)Nc2ccc(NC(=O)c3[nH]cnc3C(=O)NCCN3CCCCC3)cc2)c(Cl)c1 [Example 53, N^5-(4-{[2-chloro-4-(methylsulfonyl)benzoyl]amino}phenyl)-N^4-[2-(piperidin-1-yl)ethyl]-1H-imidazole-4,5-dicarboxamide]",20
17,"CN(C)CCNC(=O)c1nc[nH]c1C(=O)Nc1ccc(NC(=O)c2ccc(F)cc2)c(F)c1 [Example 77, N^4-[2-(dimethylamino)ethyl]-N^5-{3-fluoro-4-[(4-fluorobenzoyl)amino]phenyl}-1H-imidazole-4,5-dicarboxamide]",990
18,"CNC(=O)c1nc[nH]c1C(=O)Nc1ccc(NC(=O)c2ccc(C)c(Cl)c2)cc1 [Example 344, N^5-{4-[(3-chloro-4-methylbenzoyl)amino]phenyl}-N^4-methyl-1H-imidazole-4,5-dicarboxamide]",> 10000
19,"CNC(=O)c1nc[nH]c1C(=O)Nc1ccc(NC(=O)c2nccnc2Cl)cc1 [Example 372, N^5-(4-{[(3-chloropyrazin-2-yl)carbonyl]amino}phenyl)-N^4-methyl-1H-imidazole-4,5-dicarboxamide]",5700

# More lines, now with the values ahead:
row,IC50 [nM],Compound
1,2100,"O=C(Nc1ccc(NC(=O)c2[nH]cnc2C(=O)N2CCOCC2)cc1)c1ccc(F)cc1Cl [Example 29, N-{4-[(2-chloro-4-fluorobenzoyl)amino]phenyl}-5-(morpholin-4-ylcarbonyl)-1H-imidazole-4-carboxamide]"
2,960,"CNC(=O)c1nc[nH]c1C(=O)Nc1ccc(NC(=O)c2ccc(Cl)cc2F)cc1 [Example 333, N^5-{4-[(4-chloro-2-fluorobenzoyl)amino]phenyl}-N^4-methyl-1H-imidazole-4,5-dicarboxamide]"
3,7,"C[C@@H]1CCCCN1CCNC(=O)c1[nH]cnc1C(=O)Nc1ccc(NC(=O)c2ccc(F)cc2Cl)cc1 [Example 267, N^4-{4-[(2-chloro-4-fluorobenzoyl)amino]phenyl}-N^5-{2-[(2R)-2-methylpiperidin-1-yl]ethyl}-1H-imidazole-4,5-dicarboxamide]"
4,240,"O=C(Nc1ccc(NC(=O)c2nc[nH]c2C(=O)NCC2CCOCC2)cc1)c1ccc(F)cc1Cl [Example 397, N^5-{4-[(2-chloro-4-fluorobenzoyl)amino]phenyl}-N^4-(tetrahydro-2H-pyran-4-ylmethyl)-1H-imidazole-4,5-dicarboxamide]"
5,6100,"CNC(=O)c1nc[nH]c1C(=O)Nc1ccc(NC(=O)c2cc(F)ccc2OC)cc1 [Example 364, N^5-{4-[(5-fluoro-2-methoxybenzoyl)amino]phenyl}-N^4-methyl-1H-imidazole-4,5-dicarboxamide]"
6,140,"CNC(=O)c1nc[nH]c1C(=O)Nc1ccc(NC(=O)c2cc(F)ccc2Cl)cc1 [Example 361, N^5-{4-[(2-chloro-5-fluorobenzoyl)amino]phenyl}-N^4-methyl-1H-imidazole-4,5-dicarboxamide]"
7,> 10000,"CCc1nc(C(=O)Nc2ccc(NC(=O)c3ccc(F)cc3Cl)cc2)c(C(=O)NC)[nH]1 [Example 68, N^4-{4-[(2-chloro-4-fluorobenzoyl)amino]phenyl}-2-ethyl-N^5-methyl-1H-imidazole-4,5-dicarboxamide]"
8,60,"O=C(Nc1ccc(NC(=O)c2nc[nH]c2C(=O)N[C@H]2CCNC2)cc1)c1ccc(F)cc1Cl [Example 281, N^4-{4-[(2-chloro-4-fluorobenzoyl)amino]phenyl}-N^5-[(3S)-pyrrolidin-3-yl]-1H-imidazole-4,5-dicarboxamide]"

# Test system: HEK293 FOP control reporter cell line
# Assay: HEK293 FOP Assay (FOP control vector luciferase reporter)
# Assay type: cell-based
# Details: Homo sapiens; HEK293 FOP control reporter cell line, 16 hours incubation, compound dilution series 50 μM to 15 nM
# Summary of the method: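 Stable HEK293 line carrying the FOP vector (randomized, non-functional TCF sites; Geneticin-selected) was run in parallel with the TOP line. Cells were plated 24 h ahead at 10000/well and given recombinant human Wnt-3a at 2500–5 ng/ml. Compounds were tested at 50 μM–15 nM (3.16-fold steps) in CAFTY buffer, pH 7.4, with 2 mM Ca2+ and 0.01% BSA.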
row,Compound,IC50 [nM]
1,"CNC(=O)c1nc[nH]c1C(=O)Nc1ccc(NC(=O)c2ccccc2OC)cc1 [Example 60, N^5-{4-[(2-methoxybenzoyl)amino]phenyl}-N^4-methyl-1H-imidazole-4,5-dicarboxamide]",9750
2,"CNC(=O)c1nc[nH]c1C(=O)Nc1ccc(NC(=O)c2ccc(Cl)cc2F)cc1 [Example 333, N^5-{4-[(4-chloro-2-fluorobenzoyl)amino]phenyl}-N^4-methyl-1H-imidazole-4,5-dicarboxamide]",40000
3,"C[C@@H]1CCCCN1CCNC(=O)c1[nH]cnc1C(=O)Nc1ccc(NC(=O)c2ccc(F)cc2Cl)cc1 [Example 267, N^4-{4-[(2-chloro-4-fluorobenzoyl)amino]phenyl}-N^5-{2-[(2R)-2-methylpiperidin-1-yl]ethyl}-1H-imidazole-4,5-dicarboxamide]",20000

# Same assay, conditions: Homo sapiens; HEK293 FOP control reporter cells, 16 hours, luciferase; dilution series from 50 μM
row,Compound,IC50 [nM]
1,"O=C(Nc1ccc(NC(=O)c2[nH]cnc2C(=O)N2CCOCC2)cc1)c1ccc(F)cc1Cl [Example 29, N-{4-[(2-chloro-4-fluorobenzoyl)amino]phenyl}-5-(morpholin-4-ylcarbonyl)-1H-imidazole-4-carboxamide]",≥ 50000
